Four molecules from patent US10065990B2, “Cyclic peptide compound, and preparation method, pharmaceutical composition and use thereof” (HANGZHOU GUANYU BIO-MEDICAL CO., LTD, priority 2013, dated 2018) can be followed below.

One assay addresses T1, HDAC7 (Homo sapiens, UniProt Q8WUI4).
T1 sequence (Q8WUI4 1-952): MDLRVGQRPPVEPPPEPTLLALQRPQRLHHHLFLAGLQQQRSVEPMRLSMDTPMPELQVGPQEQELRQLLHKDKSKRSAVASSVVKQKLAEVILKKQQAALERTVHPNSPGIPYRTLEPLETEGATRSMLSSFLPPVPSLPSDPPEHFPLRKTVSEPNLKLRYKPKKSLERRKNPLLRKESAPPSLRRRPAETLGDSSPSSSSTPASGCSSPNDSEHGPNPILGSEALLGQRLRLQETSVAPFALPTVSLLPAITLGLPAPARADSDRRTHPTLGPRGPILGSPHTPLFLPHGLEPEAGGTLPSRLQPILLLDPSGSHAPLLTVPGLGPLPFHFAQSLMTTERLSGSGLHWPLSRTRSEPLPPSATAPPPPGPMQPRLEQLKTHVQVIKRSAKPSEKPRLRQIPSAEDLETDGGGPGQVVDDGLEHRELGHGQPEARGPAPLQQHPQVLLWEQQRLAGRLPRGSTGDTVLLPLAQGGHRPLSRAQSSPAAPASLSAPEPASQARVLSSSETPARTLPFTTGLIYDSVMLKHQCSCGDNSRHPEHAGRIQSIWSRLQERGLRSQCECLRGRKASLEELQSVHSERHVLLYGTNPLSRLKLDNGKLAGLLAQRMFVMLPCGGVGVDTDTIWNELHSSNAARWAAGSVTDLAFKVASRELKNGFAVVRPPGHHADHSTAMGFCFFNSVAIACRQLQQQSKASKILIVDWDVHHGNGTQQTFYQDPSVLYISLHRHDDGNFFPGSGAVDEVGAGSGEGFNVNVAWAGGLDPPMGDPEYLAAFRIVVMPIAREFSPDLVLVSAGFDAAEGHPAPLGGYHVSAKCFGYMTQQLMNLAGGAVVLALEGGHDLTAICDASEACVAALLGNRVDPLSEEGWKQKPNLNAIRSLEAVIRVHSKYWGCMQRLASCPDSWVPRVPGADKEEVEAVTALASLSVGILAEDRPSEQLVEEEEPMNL
The assay can be described thus: HDAC biochemical activity measurement (fluorescent substrate deacetylation).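 Further: fluorogenic deacetylation assay using acetyl-lysine substrate at 20 µM, enzyme and compound incubated 30 min at 37 °C, then developer added, fluorescence read at 360/460 nm.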 The following applies: HDAC7; 37° C. 30 minutes.

For assay [1], the system named is SGC-7901 (human gastric cancer cells). The assay can be described thus: MTT cancer cell growth inhibition. It is filed as cell-based. As to conditions: Homo sapiens, SGC-7901, 72 h, MTT, 72 hours incubation, SGC-7901 cells; read-out: GI50 SGC-7901. Put shortly:
(§1)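 Following overnight attachment of 1500 cells per well, each line was exposed to test drug (final 10^−5 to 10^−10 M) for 72 h in a humidified 37° C., 5% CO2 incubator. Four hours with MTT, DMSO dissolution of formazan, and a 570 nm reading yielded viability data used for GI50.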

The test system of assay [2] is MOLT-4 (human acute lymphoblastic leukemia cells). The assay can be described thus: MTT cancer cell growth inhibition. It is filed as cell-based. As to conditions: Homo sapiens, MOLT-4, 72 h, MTT, 72 hours incubation, read-out: GI50 Mol. Put shortly: as §1
In assay [3] the test system is U937 (human leukemia cells). Description: MTT cancer cell growth inhibition. Format: cell-based. As to conditions: Homo sapiens, U-937, 72 h, MTT, 72 hours incubation, read-out: GI50 U93. Put shortly: as §1
The subject of assay [4] is Hela (human cervical cancer cells). The assay can be described thus: MTT cancer cell growth inhibition. Format: cell-based. As to conditions: Homo sapiens, HeLa, 72 h, MTT, 72 hours incubation, read-out: GI50 Hela. Put shortly: as §1
Assay [5] deals with HCC827 (human non-small cell lung cancer cells). The assay can be described thus: MTT cancer cell growth inhibition. Format: cell-based. As to conditions: Homo sapiens, HCC827, 72 h, MTT, 72 hours incubation, HCC827 cells; read-out: GI50 HCC827. Put shortly:
as §1

Assay [6] has as its system PANC-1 (Pac-1, human pancreatic cancer cells). The assay can be described thus: MTT cancer cell growth inhibition. The following applies: Homo sapiens, PANC-1, 72 h, MTT, 72 hours incubation, read-out: GI50 PAN. It is filed as cell-based. Put shortly: as §1
The test system of assay [7] is Huh-7 (human hepatoma cells). Description: MTT cancer cell growth inhibition. As to conditions: Homo sapiens, Huh-7, 72 h, MTT, 72 hours incubation, Huh-7 cells; read-out: GI50 Huh-7. Format: cell-based. Put shortly: as §1
The test system of assay [8] is MCF-7 (human breast cancer cells). Description: MTT cancer cell growth inhibition. Format: cell-based. The following applies: Homo sapiens, MCF7, 72 h, 72 hours incubation, read-out: GI50 MCF. Put shortly:
as §1

Assay [9] has as its system lncap (prostate cancer cells). The assay can be described thus: MTT cancer cell growth inhibition. Format: cell-based. As to conditions: Homo sapiens, LNCaP, 72 h, MTT, 72 hours incubation, read-out: GI50 lnca. Put shortly:
as §1

The test system of assay [10] is K562 (human leukemia cells). Description: MTT cancer cell growth inhibition. As to conditions: Homo sapiens, K562, 72 h, MTT, 72 hours incubation, K562 cells; read-out: GI50 K562. Format: cell-based. Put shortly: as §1
Assay [11] relates to KBM-5 (human chronic myelogenous leukemia). Description: MTT cancer cell growth inhibition. As to conditions: Homo sapiens, KBM5, 72 h, MTT, 72 hours incubation, KBM-5 cells; read-out: GI50 KBM-5. It is filed as cell-based. Put shortly:
as §1

Assay [12] concerns N-87 (human gastric cancer cells). The assay can be described thus: MTT cancer cell growth inhibition. As to conditions: Homo sapiens, 72 h, MTT, 72 hours incubation, N-87 cells; read-out: GI50 N-87. Format: cell-based. Put shortly:
as §1

The subject of assay [13] is H1975 (non-small cell lung adenocarcinoma). Description: MTT cancer cell growth inhibition. Format: cell-based. As to conditions: Homo sapiens, NCI-H1975, 72 h, MTT, 72 hours incubation, H1975 cells; read-out: GI50 H1975. Put shortly:
as §1

Assay [14] relates to Bel-7402 (human hepatoma cells). The assay can be described thus: MTT cancer cell growth inhibition. It is filed as cell-based. The following applies: Homo sapiens, Bel-7402, 72 h, MTT, 72 hours incubation, Bel-7402 cells; read-out: GI50 Bel-7402. Put shortly: as §1
Assay [15] has as its system HT1080 (human fibrosarcoma cells). Description: MTT cancer cell growth inhibition. It is filed as cell-based. The following applies: Homo sapiens, HT-1080, 72 h, MTT, 72 hours incubation, read-out: GI50 HT1. Put shortly:
as §1

Assay [16] relates to MDA-MB-231 (breast cancer cells). The assay can be described thus: MTT cancer cell growth inhibition. Format: cell-based. The following applies: Homo sapiens, MDA-MB-231, 72 h, read-out: GI50 MDA-MB-231, MTT, 72 hours incubation, MDA-MB-231 cells. Put shortly: as §1
Assay [17] deals with DU145 (human prostate cancer cells). Description: MTT cancer cell growth inhibition. Format: cell-based. The following applies: Homo sapiens, DU-145, 72 h, MTT, 72 hours incubation, read-out: GI50 Du1. Put shortly: as §1
Assay [18] has as its system A549 (human lung cancer cells). Description: MTT cancer cell growth inhibition. Format: cell-based. As to conditions: Homo sapiens, A549, 72 h, MTT, 72 hours incubation, read-out: GI50 A54. Put shortly: as §1
The subject of assay [19] is BGC-823 (human gastric cancer cells). Description: MTT cancer cell growth inhibition. It is filed as cell-based. The following applies: Homo sapiens, BGC-823, 72 h, MTT, 72 hours incubation, read-out: GI50 BG. Put shortly: as §1
Assay [20] has as its system KBM5-T315I (human chronic myelogenous leukemia). The assay can be described thus: MTT cancer cell growth inhibition. Format: cell-based. As to conditions: Homo sapiens, 72 h, MTT, 72 hours incubation, KBM5-T315I cells; read-out: GI50 KBM5-T315I. Put shortly: as §1

Each structure is given as a SMILES string. Where two headings read alike, the source gives them in different places.

With `CC(=O)SCC/C=C/[C@@H]1CC(=O)NCc2ccc(F)c(n2)C(=O)NC(=C(C)C)C(=O)N[C@@H](C(C)C)C(=O)O1` [Compound 87], the “IC50 HDAC7” value on HDAC7 was “no activity”. Moreover, the 50% growth inhibitory concentration (GI50) stood at 37 nM in assay [1]; 10 nM in [2]; 40 nM in [3]; 80 nM in [4]; 57 nM in assay [5]; 50 nM in [6]. Further, the GI50 turned out to be 19 nM in [7]; 30 nM in assay [8]; 10 nM in assay [9]; 27 nM in assay [10]; 82 nM in assay [11]; 21 nM in assay [12]. For the same molecule, the GI50 in assay [13] worked out at 42 nM; in assay [14], 57 nM; in assay [15], 50 nM; in assay [16], 19 nM; in assay [17] it was 20 nM; in [18], 30 nM. Further, the 50% growth inhibitory concentration (GI50) in [19] turned out to be 20 nM; in assay [20], 37 nM.
`C/C=C1\NC(=O)c2cc(F)cc(n2)CNC(=O)C[C@@H](/C=C/CCSC(=O)CCCCC)OC(=O)[C@H](C(C)C)NC1=O` [Example 37]: the “IC50 HDAC7” value on HDAC7 was “no activity”. Moreover, the GI50 in [1] turned out to be 51 nM; in assay [2], 30 nM; in [3], 20 nM; in [4] it was 50 nM; in assay [5], 34 nM; in [6], 30 nM. Further, the GI50 in assay [7] came to 38 nM; in [8], 60 nM; in assay [9] it was 30 nM; in [10], 37 nM; in assay [11], 53 nM; in assay [12] it was 41 nM. For the same molecule, the 50% growth inhibitory concentration (GI50) in assay [13] was found to be 27 nM; in assay [14], 34 nM; in [15], 30 nM; in assay [16] it was 38 nM; in assay [17], 30 nM; in [18] it was 50 nM. Besides, the concentration for 50% growth inhibition (GI50) is 40 nM in assay [19] and 62 nM in assay [20].
With `C/C=C1\NC(=O)c2cc(SC)cc(n2)CNC(=O)C[C@@H](/C=C/CCSC(=O)CC)OC(=O)[C@H](C(C)C)NC1=O` [Compound 163], the “IC50 HDAC7” value at HDAC7 is “no activity”. The GI50 in assay [1] is 49 nM; in [2] (MOLT-4 cells), 40 nM; in assay [3] (U937 cells) it was 30 nM; in assay [4] (Hela cells), 10 nM; in [5], 47 nM; in [6] (PANC-1 cells), 70 nM. In addition, the concentration for 50% growth inhibition (GI50) was 107 nM in [7]; 20 nM in assay [8] (MCF-7 cells); 30 nM in assay [9] (lncap cells); 58 nM in [10]; 75 nM in [11]; 39 nM in [12]. The 50% growth inhibitory concentration (GI50) in [13] was found to be 45 nM; in [14] it was 26 nM; in assay [15] (HT1080 cells), 10 nM; in assay [16] it was 58 nM; in assay [17] (DU145 cells), 40 nM; in [18] (A549 cells), 50 nM. Besides, the GI50 came to 60 nM in [19] (BGC-823 cells) and 23 nM in assay [20].
Regarding `C/C=C1\NC(=O)c2ccc(F)c(n2)CNC(=O)C[C@@H](/C=C/CCSC(=O)CCCCCC)OC(=O)[C@H](C(C)C)NC1=O` [Example 35], the “IC50 HDAC7” value at HDAC7 is on record as “no activity”. In addition, the GI50 came out at 61 nM in assay [1]; 40 nM in assay [2]; 30 nM in assay [3]; 70 nM in assay [4]; 51 nM in assay [5]; 50 nM in assay [6]. Moreover, the 50% growth inhibitory concentration (GI50) turned out to be 46 nM in assay [7]; 50 nM in assay [8]; 40 nM in assay [9]; 26 nM in assay [10]; 75 nM in assay [11]; 63 nM in assay [12]. The concentration for 50% growth inhibition (GI50) stood at 38 nM in [13]; 51 nM in assay [14]; 50 nM in [15]; 46 nM in assay [16]; 20 nM in assay [17]; 60 nM in assay [18]. The GI50 in assay [19] was 60 nM; in assay [20], 59 nM.

One may read the GI50 as the concentration giving 50% growth inhibition.
